Source: US5238938A, “Indole derivatives” (Otsuka Pharmaceutical Co., Ltd., priority 1989, dated 1993)

Test system: releasing of lysosome from the neutrocytes of rat
Experiment: Inhibitory effect against the releasing of lysosome from the neutrocytes of rat
Type: cell-based
Conditions: rat neutrocytes 5×10^5 cells/ml, FMLP 10^-6 M + cytochalasin B 5 μg/ml, 15 minutes, OD550; for IC50: 0.25 h, read-out: 50% inhibitory concentration (IC50), releasing of lysosome
Method: Inhibitory effect against the releasing of lysosome from the neutrocytes of rat
The neutrocytes of rat were samples from the abdominal cavity of the reat 16 hours after the administration of 10 ml of 1%-casein solution (physiological saline solution).
Reaction of the releasing of lysosome from the neutrocytes of rat was determined by means of the method described in an article by T. Matsumoto, K. Takeshige and S. Minakami: Biochemical and Biophysical Research Communications, Vol. 88, No. 3, pp. 974-979, (1979).
The neutrocytes being sampled were added to Hank's soluiton so as to make the concentraiton thereof as 5×10^5 cells/ml, and the test compound of indole derivative of the present invention was added thereto to make the test group sample. On the other hand, water was added in place of the indole derivative of the present invention to make the control group sample. Each of the test group sample and the control group sample was subjected to pre-incubation at 37° C. for 1 minute.
As to the stimulating agents, 10^-6 M of FMLP (formylmethionyl leucyl phenylalanine) and 5 μg/ml of cytochalasin B were added to the solution. Thus, obtained mixture of the solution was reacted by incubating for 15 minutes. After the incubation, the mixture of the solution was subjected to centrifugation at 2,000 rpm for 10 minutes. The supernatant (0.2 ml) was admixed with 0.5 ml of 0.1M-acetic acid buffer solution (pH 4.5) in which 0.2 mM of phenolphthalein glucuronic acid was dissolved. Then the resulting mixture of the solutions was reacted at 37° C. for 5 hours by incubation. After the reaction, 1N-NaOH solution was added to the reaction mixture so as to make the pH thereof to pH 8-9, and the optical absorbance of both test group samples and control group samples were determined at 550 nm (OD550).
The 50% inhibitory concentration (IC50) values were obtained by calculating as the ratio of OD550 of the test group samples to that of the control group samples.

Compound	50% inhibitory concentration (IC50), releasing of lysosome [µg/mL]	IC50 [µg/mL]
6-(indol-3-yl)methyl-2-isobutyl-5-methyl-1,2-dihydropyrazin-3-one 4-oxide [Compound A-82a]	20	–
COn1c(CC(C)C)c(Cl)nc(Cc2c[nH]c3ccccc23)c1=O [Compound A-45, 5-chloro-3-(indol-3-yl)methyl-6-isobutyl-1-methoxy-1,2-dihydropyrazin-2-one]	–	20
CCOc1nc(CC(C)C)c(OCC)nc1Cc1c[nH]c2ccccc12 [Compound A-23, 3-(Indol-3-yl)methyl-2,5-diethoxy-6-isobutylpyrazine]	–	50
COc1nc(CC(C)C)c(OC(C)=O)nc1Cc1c[nH]c2ccccc12 [Compound A-20, 2-Acetoxy-6-(indol-3-yl)methyl-3-isobutyl-5-methoxypyrazine]	–	20
CC(C)Cc1cnc(Cc2c[nH]c3ccccc23)cn1 [Compound A-27, 2-(indol-3-yl)methyl-5-isobutylpyrazine]	–	25
